Test results reported in patent US7576094B2, “Spiro derivatives as lipoxygenase inhibitors” (Eli Lilly and Company, priority 2004, dated 2009).

Assays:
[1] = molecular target: T1, porcine leukocyte 12/15-Lipoxygenase (Sus scrofa, UniProt P16469); experiment: 12/15-Lipoxygenase Enzyme Assay; type: biochemical; details: 70 μM arachidonic acid, 10 minute incubation at room temperature, FOX reagent, absorbance at 620 nm; read-out: inhibition of 12/15-Lipoxygenase with an IC50
T1 sequence (P16469 1-663): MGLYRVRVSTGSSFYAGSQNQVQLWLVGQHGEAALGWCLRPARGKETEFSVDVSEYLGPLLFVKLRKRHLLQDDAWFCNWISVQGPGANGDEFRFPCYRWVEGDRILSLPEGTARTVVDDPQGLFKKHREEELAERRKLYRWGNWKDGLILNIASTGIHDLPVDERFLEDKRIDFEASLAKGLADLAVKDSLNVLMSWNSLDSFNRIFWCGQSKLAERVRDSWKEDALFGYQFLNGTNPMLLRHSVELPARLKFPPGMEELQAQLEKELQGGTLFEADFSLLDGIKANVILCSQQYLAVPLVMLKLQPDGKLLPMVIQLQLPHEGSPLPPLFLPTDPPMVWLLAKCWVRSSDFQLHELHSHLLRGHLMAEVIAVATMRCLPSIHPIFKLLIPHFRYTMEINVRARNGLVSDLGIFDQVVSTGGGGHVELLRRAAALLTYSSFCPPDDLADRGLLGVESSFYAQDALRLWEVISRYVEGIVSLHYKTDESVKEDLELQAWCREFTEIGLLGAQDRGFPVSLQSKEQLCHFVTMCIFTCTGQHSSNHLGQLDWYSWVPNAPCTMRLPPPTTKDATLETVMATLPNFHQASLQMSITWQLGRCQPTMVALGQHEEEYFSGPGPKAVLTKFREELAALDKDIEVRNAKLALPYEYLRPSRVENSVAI
Text: This procedure was used for measuring the enzymatic activity of porcine leukocyte 12/15-Lipoxygenase using a […] method based on the ferric oxidation of xylenol orange.
• 96 well flat bottom microfilter plates (VWR, Catalog # 62402-933 9295) • Lipoxygenase screening assay buffer (Cayman, Catalog # 760710) • Porcine leukocyte 12/15-Lipoxygenase (Cayman, Catalog # 60300) • Arachidonic Acid (Sigma, Catalog # A3555) • Xylenol orange tetrasodium salt (Aldrich, Catalog # 227854) • Iron (II) sulfate heptahydrate (Sigma, Catalog # F7002) • Sulfuric acid (95-98%) [18M] • Methanol Procedure
Porcine Leukocyte 12/15-Lipoxygenase (Cayman Cat # 60300) was used in this assay. Test compound and/or vehicle was added to 1.3 μL 12/15-Lipoxygenase in 50 mM Tris-HCl buffer, pH 7.4. The reaction was initiated by addition of 70 μM arachidonic acid in Tris-HCl buffer, pH 7.4, and terminated after a 10 minute incubation at room temperature by addition of FOX reagent (25 mM sulfuric acid, 100 μM xylenol orange, 100 μM iron (II) sulfate, methanol:water 9:1). The yellow color of acidified xylenol orange was converted to a blue color by the lipid hydroperoxide-mediated oxidation of Fe^2+ ions and the interaction of the resulting Fe^3+ ions with the dye. The complex was allowed to form during a 1 hour incubation at room temperature with shaking. Absorbance of the Fe^3+ complex was then measured at […] using a spectrophotometer.
Negative controls contained enzyme during the incubation step but substrate was not added until after the FOX reagent. Compounds are screened at 5 concentrations in triplicate starting at 10 μM

[2] = system: LTB4 production in human whole blood; experiment: Inhibition of LTB4 Production in Blood; type: cell-based; details: 1 h, 20 μM A23187, 60 minutes at 37° C., LTB4 in plasma by ELISA, read-out: protection against LTB4 at an EC50
Summary of the method: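 Citrated human whole blood preincubated 15 min at 37 °C with compound (top final 30 μM, 1:3 dilutions, quadruplicate), then stimulated with 20 μM A23187 for 60 min at 37 °C. Plasma LTB4 quantified by ELISA; IC50 from percent inhibition versus vehicle.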

[3] = molecular target: T2, human recombinant 5-Lipoxygenase (Homo sapiens, UniProt P09917); experiment: 5-Lipoxygenase Enzyme Assay; type: biochemical; details: 70 μM arachidonic acid, 10 minute incubation at room temperature, FOX reagent, absorbance at 620 nm; read-out: inhibition of 5-Lipoxygenase with an IC50
T2 sequence (P09917 1-674): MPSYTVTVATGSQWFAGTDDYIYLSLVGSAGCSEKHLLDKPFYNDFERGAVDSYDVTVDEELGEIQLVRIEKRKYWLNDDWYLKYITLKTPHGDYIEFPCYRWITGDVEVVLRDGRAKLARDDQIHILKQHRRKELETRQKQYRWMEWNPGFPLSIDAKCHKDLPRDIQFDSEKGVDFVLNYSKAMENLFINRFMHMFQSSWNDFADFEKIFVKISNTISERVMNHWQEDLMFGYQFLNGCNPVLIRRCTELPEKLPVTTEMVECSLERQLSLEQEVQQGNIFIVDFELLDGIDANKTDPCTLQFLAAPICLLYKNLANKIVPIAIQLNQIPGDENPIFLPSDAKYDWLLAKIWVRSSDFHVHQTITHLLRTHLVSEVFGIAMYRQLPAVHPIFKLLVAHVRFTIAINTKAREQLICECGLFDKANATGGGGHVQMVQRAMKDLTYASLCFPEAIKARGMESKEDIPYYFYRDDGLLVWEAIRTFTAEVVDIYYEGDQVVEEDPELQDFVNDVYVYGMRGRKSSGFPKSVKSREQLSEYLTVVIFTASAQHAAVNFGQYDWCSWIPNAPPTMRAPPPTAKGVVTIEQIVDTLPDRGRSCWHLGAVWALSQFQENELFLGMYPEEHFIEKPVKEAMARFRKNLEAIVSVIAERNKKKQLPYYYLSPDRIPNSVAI
Summary of the method: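 Recombinant human 5-LOX in 50 mM Tris-HCl pH 7.4 was preincubated with compound, then 70 μM arachidonic acid was added for 10 min at room temperature. Hydroperoxide was read by FOX reagent (ferric xylenol orange, 1 h complex formation) as absorbance at 620 nm. Five concentrations in triplicate were tested, starting at 10 μM.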

[4] = system: release of the leukotriene LTB4 from a neutrophil cell line (MPRO cell line); experiment: LTB4-Cell Assay; type: cell-based; details: Mus musculus, 1 h, read-out: inhibition of LTB4 with an EC50
Summary of the method: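 Mouse promyelocytic cells differentiated to neutrophils with 10 μM all-trans retinoic acid for 72 h, then stimulated with 1 μM A23187 plus compound for 1 h at 37° C. Supernatant LTB4 quantified by competitive EIA; 5 concentrations in quadruplicate from 10 μM top.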

Cc1c(O)c(C(C)C)cc2c1C=CC1(CCC1)O2 [7-isopropyl-5-methylspiro[chromene-2,1′-cyclobutan]-6-ol]
IC50 [1]: < 5 µM | EC50 [2]: < 10 µM | IC50 [3]: < 0.3 µM

Cc1c(C)c2c(c(C)c1O)C=CC1(CCC1)S2 [5′,7′,8′-trimethylspiro[cyclobutane-1,2′-thiochromen]-6′-ol]
EC50 [4]: < 5 µM | IC50 [1]: < 5 µM | IC50 [3]: < 0.3 µM

Cc1c(O)c(Cl)c(C)c2c1CCC1(CCC1)O2 [7-chloro-5,8-dimethyl-3,4-dihydrospiro[chromene-2,1′-cyclobutan]-6-ol]
EC50 [4]: < 5 µM | IC50 [1]: < 5 µM | IC50 [3]: < 0.3 µM

Cc1c(C)c2c(c(C)c1O)CCC1(CCC1)O2 [5,7,8-trimethyl-3,4-dihydrospiro[chromene-2,1′-cyclobutan]-6-ol]
EC50 [4]: < 5 µM | IC50 [1]: < 5 µM | IC50 [3]: < 0.3 µM

Cc1c(O)c(C(C)C)cc2c1CCC1(CCC1)O2 [7-isopropyl-5-methyl-3,4-dihydrospiro[chromene-2,1′-cyclobutan]-6-ol]
IC50 [1]: < 5 µM | EC50 [2]: < 10 µM | IC50 [3]: < 0.3 µM

Cc1c(C)c2c(c(C)c1O)C(OC(=O)Nc1ccccc1)CCS2 (stereo not drawn) [6-hydroxy-5,7,8-trimethylthiochroman-4-yl phenylcarbamate]
EC50 [4]: < 5 µM | IC50 [1]: < 5 µM | IC50 [3]: < 0.3 µM

Cc1c(O)c(CCC(C)C)c(C)c2c1CCC1(CCC1)O2 [5,8-dimethyl-7-(3-methylbutyl)-3,4-dihydrospiro[chromene-2,1′-cyclobutan]-6-ol]
EC50 [4]: < 5 µM | IC50 [1]: < 5 µM | IC50 [3]: < 0.3 µM

Cc1c(C)c2c(c(C)c1O)CC1(CCC1)CO2 [5,7,8-trimethylspiro[chroman-3,1′-cyclobutan]-6-ol]
IC50 [1]: < 5 µM | EC50 [2]: < 10 µM | IC50 [3]: < 0.3 µM

CCCc1ccc(S(=O)(=O)NCCCN2CC3(CCC3)Cc3cc(O)c(C)c(C)c32)cc1 [N-(3-(6′-hydroxy-7′,8′-dimethyl-2′,4′-dihydro-1′H-spiro[cyclobutane-1,3′-quinoline]-1′-yl)propyl)-4-propylbenzenesulfonamide]
IC50 [1]: < 5 µM | EC50 [2]: < 10 µM | IC50 [3]: < 0.3 µM

CO/N=C/C1=Cc2c(cc(C)c(O)c2C)OC12CCC2 [6-hydroxy-5,7-dimethylspiro[chromene-2,1′-cyclobutane]-3-carbaldehyde O-methyloxime]
EC50 [4]: < 5 µM | IC50 [1]: < 5 µM | EC50 [2]: < 10 µM

Cc1c(C)c2c(c(C)c1O)CCC1(CCC1)S2 [5′,7′,8′-trimethyl-3′,4′-dihydrospiro[cyclobutane-1,2′-thiochromen]-6′-ol]
EC50 [4]: < 5 µM | IC50 [1]: < 5 µM | IC50 [3]: < 0.3 µM

Cc1cc2c(c(C)c1O)C=C(c1cnco1)C1(CCC1)O2 [5,7-dimethyl-3-(1,3-oxazol-5-yl)spiro[chromene-2,1′-cyclobutan]-6-ol]
IC50 [1]: < 5 µM | EC50 [2]: < 10 µM | IC50 [3]: < 0.3 µM

CC(C)c1cc2c(c(C(C)C)c1O)C=CC1(CCC1)O2 [5,7-diisopropylspiro[chromene-2,1′-cyclobutan]-6-ol]
IC50 [1]: < 5 µM | EC50 [2]: < 10 µM | IC50 [3]: < 0.3 µM

CCOC1CC2(CCC2)Oc2c(C)c(C)c(O)c(C)c21 (stereo not drawn) [4-ethoxy-5,7,8-trimethyl-3,4-dihydrospiro[chromene-2,1′-cyclobutan]-6-ol]
EC50 [4]: < 5 µM | IC50 [1]: < 5 µM | IC50 [3]: < 0.3 µM

COC(=O)CSCC1Cc2c(C)c(O)c(C)c(C)c2OC12CCC2 (stereo not drawn) [methyl {[(6-hydroxy-5,7,8-trimethyl-3,4-dihydrospiro[chromene-2,1′-cyclobutan]-3-yl)methyl]thio}acetate]
EC50 [4]: < 5 µM | IC50 [1]: < 5 µM | IC50 [3]: < 0.3 µM

Cc1c(O)c(C)c2c(c1Cl)OC1(CCC1)CC2 [8-chloro-5,7-dimethyl-3,4-dihydrospiro[chromene-2,1′-cyclobutan]-6-ol]
EC50 [4]: < 5 µM | IC50 [1]: < 5 µM | IC50 [3]: < 0.3 µM

Cc1c(C)c2c(c(C)c1O)C(SC(C)C)CC1(CCC1)O2 (stereo not drawn) [4-(isopropylthio)-5,7,8-trimethyl-3,4-dihydrospiro[chromene-2,1′-cyclobutan]-6-ol]
EC50 [4]: < 5 µM | IC50 [1]: < 5 µM | IC50 [3]: < 0.3 µM

Cc1cc2c(c(C)c1O)CC(c1cnco1)C1(CCC1)O2 (stereo not drawn) [5,7-dimethyl-3-(oxazol-5-yl)spiro[chroman-2,1′-cyclobutan]-6-ol]
IC50 [1]: < 5 µM | EC50 [2]: < 10 µM | IC50 [3]: < 0.3 µM

Cc1c(C)c2c(c(C)c1O)C(OC1CCCC1)CC1(CCC1)O2 (stereo not drawn) [4-(cyclopentyloxy)-5,7,8-trimethyl-3,4-dihydrospiro[chromene-2,1′-cyclobutane]-6-diol]
EC50 [4]: < 5 µM | IC50 [1]: < 5 µM | IC50 [3]: < 0.3 µM

Cc1c(O)cc(Cl)c2c1CCC1(CCC1)O2 [8-chloro-5-methyl-3,4-dihydrospiro[chromene-2,1′-cyclobutan]-6-ol]
EC50 [4]: < 5 µM | IC50 [1]: < 5 µM | IC50 [3]: < 0.3 µM

CCc1cc2c(c(CC)c1O)C=CC1(CCC1)O2 [5,7-diethylspiro[chromene-2,1′-cyclobutan]-6-ol]
IC50 [1]: < 5 µM | EC50 [2]: < 10 µM | IC50 [3]: < 0.3 µM

Cc1c(O)cc2c(c1C)N(c1ccc(O)cn1)CC1(CCC1)C2 [1′-(5-hydroxypyridin-2-yl)-7′,8′-dimethyl-2′,4′-dihydro-1′H-spiro[cyclobutane-1,3′-quinolin]-6′-ol]
IC50 [1]: < 5 µM | EC50 [2]: < 10 µM | IC50 [3]: < 0.3 µM
